Assay results as given in patent US8835425B2, “Use of selective GABA A α5 negative allosteric modulators for the treatment of central nervous system conditions” (Hoffmann-La Roche Inc., priority 2010, dated 2014).
pKi: −log10 of the molar value. Like-named read-outs stand apart in the source and are kept apart here.

Tests used:
human GABA A α5β3γ2 [1] = target: T1, human GABA A α5β3γ2 (Homo sapiens, UniProt P18507+P31644); assay: [3H]flumazenil competition binding, HEK293 cells expressing human α5β3γ2; design: expressed in transfected cells; host or cells: HEK293
human GABA A α1β2/3γ2 [2] = target: T2, human GABA A α1β2/3γ2 (Homo sapiens, UniProt P14867+P18507); assay: [3H]flumazenil competition binding, HEK293 cells expressing human α1β2/3γ2; design: expressed in transfected cells; host or cells: HEK293; conditions: for hKi α1/hKi α5: binding selectivity ratio
human GABA A α2β3γ2 [3] = target: T3, human GABA A α2β3γ2 (Homo sapiens, UniProt P18507+P47869); assay: [3H]flumazenil competition binding, HEK293 cells expressing human α2β3γ2; design: expressed in transfected cells; host or cells: HEK293; conditions: for hKi α2/hKi α5: binding selectivity ratio
human GABA A α3β3γ2 [4] = target: T4, human GABA A α3β3γ2 (Homo sapiens, UniProt P18507+P34903); assay: [3H]flumazenil competition binding, HEK293 cells expressing human α3β3γ2; design: expressed in transfected cells; host or cells: HEK293; conditions: for hKi α3/hKi α5: binding selectivity ratio
human GABA A α5β3γ2 [5] = target: T1, human GABA A α5β3γ2; assay: Two-microelectrode voltage clamp, modulation of GABA EC10 response in Xenopus oocytes, α5β3γ2; format: cell-based; design: expressed in transfected cells; host or cells: Xenopus laevis oocytes; conditions: % change of submaximal (EC10) response to GABA at 30×Ki
Protocol: (§1) Table 2b. […] Effect at human GABA A α5 receptors: % change of a submaximal (EC10) response to GABA determined at 30×Ki value from the flumazenil binding assay.
(§2) Subtype-selective effects were determined on cloned receptors expressed in Xenopus oocytes. Human recombinant GABA A receptors were expressed in Xenopus laevis oocytes. Current responses were evoked in two-microelectrode voltage-clamp condition by applying an EC10 of GABA before and during the co-application of the test compound. Response amplitudes in the presence of the test compound are expressed as percentage of the amplitudes before drug addition.

human GABA A α1β2/3γ2 [6] = target: T2, human GABA A α1β2/3γ2; assay: Two-microelectrode voltage clamp, modulation of GABA EC10 response in Xenopus oocytes, α1β2/3γ2; format: cell-based; design: expressed in transfected cells; host or cells: Xenopus laevis oocytes; conditions: % change of EC10 GABA response at 3 μM or at 30×Ki if Ki below 0.1 μM
human GABA A α2β3γ2 [7] = target: T3, human GABA A α2β3γ2; assay: Two-microelectrode voltage clamp, modulation of GABA EC10 response in Xenopus oocytes, α2β3γ2; format: cell-based; design: expressed in transfected cells; host or cells: Xenopus laevis oocytes; conditions: % change of EC10 GABA response at 3 μM or at 30×Ki if Ki below 0.1 μM
Protocol: as §1, §2

human GABA A α3β3γ2 [8] = target: T4, human GABA A α3β3γ2; assay: Two-microelectrode voltage clamp, modulation of GABA EC10 response in Xenopus oocytes, α3β3γ2; format: cell-based; design: expressed in transfected cells; host or cells: Xenopus laevis oocytes; conditions: % change of EC10 GABA response at 3 μM or at 30×Ki if Ki below 0.1 μM
Protocol: as §1, §2

[9] = [3H]flumazenil competition, human α5β3γ2, read-out: hKi α5
[10] = [3H]flumazenil competition, human α1β2/3γ2, read-out: hKi α1
[11] = [3H]flumazenil competition, human α2β3γ2, read-out: hKi α2
[12] = [3H]flumazenil competition, human α3β3γ2, read-out: hKi α3

| SMILES | pKi (human GABA A α5β3γ2 [1]; [9]) | pKi (human GABA A α5β3γ2 [1]) | pKi (human GABA A α1β2/3γ2 [2]) | hKi α1/hKi α5 (human GABA A α1β2/3γ2 [2]) | pKi (human GABA A α2β3γ2 [3]) | hKi α2/hKi α5 (human GABA A α2β3γ2 [3]) | pKi (human GABA A α3β3γ2 [4]) | hKi α3/hKi α5 (human GABA A α3β3γ2 [4]) | Efficacy GABA A α5β3γ2 (human GABA A α5β3γ2 [5]) | Efficacy GABA A α1β2/3γ2 (human GABA A α1β2/3γ2 [6]) | Efficacy GABA A α2β3γ2 (human GABA A α2β3γ2 [7]) | Efficacy GABA A α3β3γ2 (human GABA A α3β3γ2 [8]) | pKi (human GABA A α1β2/3γ2 [2]; [10]) | pKi (human GABA A α2β3γ2 [3]; [11]) | pKi (human GABA A α3β3γ2 [4]; [12]) |
| --- | --- | --- | --- | --- | --- | --- | --- | --- | --- | --- | --- | --- | --- | --- | --- |
| Cc1onc(-c2ccccc2)c1COc1ccc(C(=O)N2CCn3cnnc3C2)cn1 [Compound P1, (5,6-Dihydro-8H-[1,2,4]triazolo[4,3-a]pyrazin-7-yl)-[6-(5-methyl-3-phenyl-isoxazol-4-ylmethoxy)-pyridin-3-yl]-methanone] | 7.52 | – | – | – | – | – | – | – | – | – | – | – | – | – | – |
| Clc1ccc2c(c1)-c1ncnn1Cc1c(Cl)ncn1-2 [Compound 8586, 3,10-Dichloro-9H-imidazo[1,5-a][1,2,4]triazolo[1,5-d][1,4]benzodiazepine] | – | 8.68 | 7.82 | 7 | 7.63 | 12 | 7.85 | 7 | −33% | −5% | +2% | +7% | – | – | – |
| N#Cc1ccc2c(c1)-c1ncnn1Cc1c(C(F)F)ncn1-2 [Compound 8582, 3-Cyano-10-difluoromethyl-9H-imidazo[1,5-a][1,2,4]triazolo[1,5-d][1,4]benzodiazepine] | – | – | – | 16 | – | 15 | – | 6 | −37% | −21% | – | – | 6.59 | – | – |
| FCc1ncn2c1Cn1ncnc1-c1cc(F)ccc1-2 [Compound 8580, 3-Fluoro-10-fluoromethyl-9H-imidazo[1,5-a][1,2,4]triazolo[1,5-d][1,4]benzodiazepine] | – | – | 7.36 | 5 | – | 3 | – | 3 | −35% | – | – | – | – | – | – |
| FC(F)c1ccc2c(c1)-c1ncnn1Cc1c(Cl)ncn1-2 [Compound 8588, 10-Chloro-3-difluoromethyl-9H-imidazo[1,5-a][1,2,4]triazolo[1,5-d][1,4]benzodiazepine] | – | – | – | 19 | – | 37 | – | 15 | – | – | – | – | – | – | – |
| Cc1onc(-c2ccc(Cl)cn2)c1COc1ccc(C(=O)N2CCSCC2)cn1 [Compound W1, {6-[3-(5-Chloro-pyridin-2-yl)-5-methyl-isoxazol-4-ylmethoxy]-pyridin-3-yl}-thiomorpholin-4-yl-methanone] | 9.40 | – | – | 87 | – | 27 | – | 44 | – | – | – | – | 7.46 | 7.97 | 7.75 |
| Cc1nc2n(n1)Cc1c(Cl)ncn1-c1ccc(C#N)cc1-2 [Compound 8587, 10-Chloro-3-cyano-6-methyl-9H-imidazo[1,5-a][1,2,4]triazolo[1,5-d][1,4]benzodiazepine] | – | 7.96 | – | 23 | – | 13 | – | 10 | −42% | −28% | – | – | 6.60 | 6.85 | 6.98 |
| Clc1ncn2c1Cn1ncnc1-c1ccccc1-2 [Compound 8585, 10-Chloro-9H-imidazo[1,5-a][1,2,4]triazolo[1,5-d][1,4]benzodiazepine] | – | – | – | 14 | – | 5 | – | 2 | −41% | −37% | – | – | – | – | – |
| FC(F)c1ncn2c1Cn1ncnc1-c1ccccc1-2 [Compound 8583, 10-Difluoromethyl-9H-imidazo[1,5-a][1,2,4]triazolo[1,5-d][1,4]benzodiazepine] | – | – | – | 18 | – | 9 | – | 7 | – | – | – | – | – | – | – |
| Cc1onc(-c2ccc(Cl)cc2)c1COc1ccc(C(=O)N2CCOCC2)cn1 [Compound S1, {6-[3-(4-Chloro-phenyl)-5-methyl-isoxazol-4-ylmethoxy]-pyridin-3-yl}-morpholin-4-yl-methanone] | 8.27 | – | – | 102 | – | 39 | – | 41 | – | – | – | – | 6.26 | 6.68 | 6.66 |
| Cc1nc2n(n1)Cc1c(CF)ncn1-c1ccc(Cl)cc1-2 [Compound 8584, 3-Chloro-10-fluoromethyl-6-methyl-9H-imidazo[1,5-a][1,2,4]triazolo[1,5-d][1,4]benzodiazepine] | – | – | – | 50 | – | 72 | – | 47 | – | – | – | – | 6.90 | – | – |
| Cc1onc(-c2ccc(F)cn2)c1COc1ccc(C(=O)N2CCS(=O)(=O)CC2)cn1 [Compound V1, (1,1-Dioxo-1λ,6-thiomorpholin-4-yl)-{6-[3-(5-fluoro-pyridin-2-yl)-5-methyl-isoxazol-4-ylmethoxy]-pyridin-3-yl}-methanone] | 8.92 | – | – | 119 | – | 44 | – | 63 | −33% | 0% | +9% | +16% | 6.84 | 7.27 | 7.12 |
| Cc1onc(-c2ccccc2)c1COc1ccc(C(=O)N2CC3(COC3)C2)cn1 [Compound Q1, [6-(5-Methyl-3-phenyl-isoxazol-4-ylmethoxy)-pyridin-3-yl]-(2-oxa-6-aza-spiro[3.3]hept-6-yl)-methanone] | 7.82 | – | – | 42 | – | 29 | – | 26 | −35% | −11% | −18% | −17% | 6.20 | 6.36 | 6.40 |
| Cc1nc2n(n1)Cc1c(Cl)ncn1-c1ccc(Br)cc1-2 [Compound 8589, 3-Bromo-10-chloro-6-methyl-9H-imidazo[1,5-a][1,2,4]triazolo[1,5-d][1,4]benzodiazepine] | – | 8.21 | 6.65 | 37 | 6.64 | 37 | 6.67 | 35 | – | – | – | – | – | – | – |
| Cc1onc(-c2ccc(F)cn2)c1COc1ccc(C(=O)NC(C)C)cn1 [Compound U1] | – | – | – | – | – | – | – | – | −33% | −15% | −34% | −21% | – | – | – |
| Fc1ccc2c(c1)-c1ncnn1Cc1c(Br)ncn1-2 [Compound 8590, 10-Bromo-3-fluoro-9H-imidazo[1,5-a][1,2,4]triazolo[1,5-d][1,4]benzodiazepine] | – | – | – | 4 | – | 7 | – | 8 | – | – | – | – | – | – | – |
